In US7939552B2, “Benzyloxypropylamine derivative” (Nippon Zoki Pharmaceutical Co., Ltd., priority 2005, dated 2011):
Counter-ions that a name gives are not always drawn.

Biological target: T1, human NK1 receptor (Homo sapiens, UniProt P25103)
T1 construct: expressed in transfected cells; host or cells: CHO cells (hNK1-CHO)
Experiment: Human NK1 receptor binding assay (3H-Sar9-SP, hNK1-CHO cells)
Settings: room temperature 60 minutes
Experimental: A supernatant liquid was removed from an hNK1-CHO cell incubation flask in a confluent state, trypsin (0.25%)-EDTA (1 mmol/L) (Gibco) was added thereto and the cells were exfoliated and recovered. After they were washed with a buffer A (pH 7.5; 50 mmol/L Tris hydrochloride 50 mmol/L, 150 mmol/L NaCl and 0.02% BSA) for one time (at […] for 5 minutes), cell numbers were adjusted and re-floated on a buffer for assay {a buffer A to which 40 μg/mL bacitracin (Sigma), 4 μg/mL leupeptin (Sigma), 4 μg/mL chymostatin (Sigma) and 4 μg/mL phosphoramidon (Sigma) were added}. The hNK1-CHO cells (100 μL) were placed in a tube (TPX-12, Maruemu) in which 300 μL of the buffer for assay was charged so as to make cells 10^5 per tube, 50 μL of a hot solution (^3H-Sar^9-SP, final concentration: […]) and 50 μL of a substance to be tested were added (a system of 500 μL), stirred and made to react at room temperature for 60 minutes. After completion of the reaction, it was filtered through a GF/B filter (25 mm diameter, Whatman) which was previously dipped in 0.1% polyethyleneimine p-70 (Wako Pure Chemical), washed with the buffer A (4 mL each for three times), placed in a vial and dried at 60° C. for one night. After drying, 10 mL of a scintillator (AL-1, toluene base, Dojindo) was added thereto and dpm was measured by a liquid scintillation counter (for 5 minutes/vial).
With regard to a nonspecific binding, it was defined as the dpm when 10 μmol/L of the substance P was added instead of the substance to be tested. The experiment was conducted in duplicate and at least three experiments were repeated. IC50 value was calculated using a probit method (statistic library II, Yukms).

T1 sequence (P25103 whole entry): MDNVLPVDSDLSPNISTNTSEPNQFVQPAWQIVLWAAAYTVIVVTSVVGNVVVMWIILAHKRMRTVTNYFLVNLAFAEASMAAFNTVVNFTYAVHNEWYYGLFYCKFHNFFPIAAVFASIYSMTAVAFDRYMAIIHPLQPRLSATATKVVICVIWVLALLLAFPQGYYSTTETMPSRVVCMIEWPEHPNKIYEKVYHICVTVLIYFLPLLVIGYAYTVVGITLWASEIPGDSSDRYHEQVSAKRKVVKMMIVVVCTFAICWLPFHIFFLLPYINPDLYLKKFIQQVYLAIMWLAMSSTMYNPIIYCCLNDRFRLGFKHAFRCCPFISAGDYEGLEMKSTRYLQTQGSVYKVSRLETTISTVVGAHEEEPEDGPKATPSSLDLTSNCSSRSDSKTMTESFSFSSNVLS

IC50 [nM] | Compound
9 | O=C(NCC(COCc1cc(C(F)(F)F)cc(C(F)(F)F)c1)c1ccc(F)cc1)c1cc[n+]([O-])cc1 (single isomer, unassigned; (+)) [(+)-Compound 21]
1.5 | O=C(NCC(COCc1cc(C(F)(F)F)cc(C(F)(F)F)c1)c1ccc(F)cc1)c1cc[n+]([O-])cc1 (single isomer, unassigned; (-)) [(−)-Compound 21]
5.9 | C[n+]1ccc(C(=O)NCC(COCc2cc(C(F)(F)F)cc(C(F)(F)F)c2)c2ccccc2)cc1 (centres unmarked) [Compound 26, 4-[3-(3,5-Bis(trifluoromethyl)benzyloxy)-2-phenylpropylcarbamoyl]-1-methylpyridinium iodide]
9.2 | O=C(Cc1ccc[n+]([O-])c1)NCC(COCc1cc(C(F)(F)F)cc(C(F)(F)F)c1)c1ccccc1 (centres unmarked) [Compound 41, N-[3-(3,5-Bis(trifluoromethyl)benzyloxy)-2-phenylpropyl]-2-(1-oxypyridin-3-yl)acetamide]
8.5 | O=C(C=Cc1ccc[n+]([O-])c1)NCC(COCc1cc(C(F)(F)F)cc(C(F)(F)F)c1)c1ccccc1 (centres unmarked) [Compound 54, N-[3-(3,5-Bis(trifluoromethyl)benzyloxy)-2-phenylpropyl]-3-(1-oxypyridin-3-yl)acrylamide]
33.6 | NCCC(=O)NCC(COCc1cc(C(F)(F)F)cc(C(F)(F)F)c1)c1ccccc1 (centres unmarked) [Compound 74, 3-Amino-N-[3-(3,5-bis(trifluoromethyl)benzyloxy)-2-phenylpropyl]propionamide hydrochloride]
21 | NCCC(=O)NCC(COCc1cc(C(F)(F)F)cc(C(F)(F)F)c1)c1ccc(F)cc1 (centres unmarked) [Compound 76, 3-Amino-N-[3-(3,5-bis(trifluoromethyl)benzyloxy)-2-(4-fluorophenyl)propyl]propionamide hydrochloride]
19 | NCCCCC(=O)NCC(COCc1cc(C(F)(F)F)cc(C(F)(F)F)c1)c1ccccc1 (centres unmarked) [Compound 78, N-[3-(3,5-Bis(trifluoromethyl)benzyloxy)-2-phenylpropyl]-5-aminopentanoicamide hydrochloride]
14.7 | O=C(O)CN1CCC(C(=O)NCC(COCc2cc(C(F)(F)F)cc(C(F)(F)F)c2)c2ccccc2)CC1 (centres unmarked) [Compound 80, {4-[3-(3,5-Bis(trifluoromethyl)benzyloxy)-2-phenylpropylcarbamoyl]piperidin-1-yl}acetic acid hydrochloride]
6 | O=C(NCC(COCc1cc(C(F)(F)F)cc(C(F)(F)F)c1)c1ccccc1)NC1CCNCC1 (centres unmarked) [Compound 86, 1-[3-(3,5-Bis(trifluoromethyl)benzyloxy)-2-phenylpropyl]-3-piperidin-4-ylurea hydrochloride]
8.6 | NC1CCC(C(=O)NCC(COCc2cc(C(F)(F)F)cc(C(F)(F)F)c2)c2ccccc2)CC1 (centres unmarked) [Compound 88, 4-Aminocyclohexanecarboxylic acid [3-(3,5-bis(trifluoromethyl)benzyloxy)-2-phenylpropyl]amide hydrochloride]
44 | O=C(CN1CCC(C(=O)O)CC1)NCC(COCc1cc(C(F)(F)F)cc(C(F)(F)F)c1)c1ccccc1 (centres unmarked) [Compound 90, 1-{[3-(3,5-Bis(trifluoromethyl)benzyloxy)-2-phenylpropylcarbamoyl]methyl}piperidine-4-carboxylic acid]
43.5 | O=C(CN1CCC(N2CCCCC2)CC1)NCC(COCc1cc(C(F)(F)F)cc(C(F)(F)F)c1)c1ccccc1 (centres unmarked) [Compound 91, N-[3-(3,5-Bis(trifluoromethyl)benzyloxy)-2-phenylpropyl]-2-[1,4′]bipiperidinyl-1′-ylacetamide dihydrochloride]
42.2 | CN(CC(COCc1cc(C(F)(F)F)cc(C(F)(F)F)c1)c1ccccc1)C(=O)C1CCNCC1 (centres unmarked) [Compound 93, N-[3-(3,5-Bis(trifluoromethyl)benzyloxy)-2-phenylpropyl]-N-methylpiperidine-4-carboxamide hydrochloride]
15.4 | CN(CC(COCc1cc(C(F)(F)F)cc(C(F)(F)F)c1)c1ccc(F)cc1)C(=O)C1CCNCC1 (centres unmarked) [Compound 95, N-[3-(3,5-Bis(trifluoromethyl)benzyloxy)-2-(4-fluorophenyl)propyl]-N-methylpiperidine-4-carboxamide hydrochloride]
28.5 | CN1CCC(C(=O)N(C)CC(COCc2cc(C(F)(F)F)cc(C(F)(F)F)c2)c2ccccc2)CC1 (centres unmarked) [Compound 96, N-[3-(3,5-Bis(trifluoromethyl)benzyloxy)-2-phenylpropyl]-N-methyl-1-methylpiperidine-4-carboxamide hydrochloride]
27 | CN(CC(COCc1cc(C(F)(F)F)cc(C(F)(F)F)c1)c1ccc(F)cc1)C(=O)c1ccncc1 (centres unmarked) [Compound 98, N-[3-(3,5-Bis(trifluoromethyl)benzyloxy)-2-(4-fluorophenyl)propyl]-N-methylisonicotinamide]
23.8 | CN(CC(COCc1cc(C(F)(F)F)cc(C(F)(F)F)c1)c1ccccc1)C(=O)c1cc[n+]([O-])cc1 (centres unmarked) [Compound 99, N-[3-(3,5-Bis(trifluoromethyl)benzyloxy)-2-phenylpropyl]-N-methyl-1-oxyisonicotinamide]
11.9 | CN(CC(COCc1cc(C(F)(F)F)cc(C(F)(F)F)c1)c1ccc(F)cc1)C(=O)c1ccnc(O)c1 (centres unmarked) [Compound 100, N-[3-(3,5-Bis(trifluoromethyl)benzyloxy)-2-(4-fluorophenyl)propyl]-2-hydroxy-N-methylisonicotinamide]
35.5 | CN(CC(COCc1cc(C(F)(F)F)cc(C(F)(F)F)c1)c1ccccc1)C(=O)CCN (centres unmarked) [Compound 102, N-[3-(3,5-Bis(trifluoromethyl)benzyloxy)-2-phenylpropyl]-N-methyl-3-aminopropionamide hydrochloride]
6.5 | CN(CC(COCc1cc(C(F)(F)F)cc(C(F)(F)F)c1)c1ccc(F)cc1)C(=O)CCN (centres unmarked) [Compound 104, 3-Amino-N-[3-(3,5-bis(trifluoromethyl)benzyloxy)-2-(4-fluorophenyl)propyl]-N-methylpropionamide hydrochloride]
30.3 | CN(CC(COCc1cc(C(F)(F)F)cc(C(F)(F)F)c1)c1ccccc1)C(=O)CCCCN (centres unmarked) [Compound 106, 5-Aminopentanoic acid [3-(3,5-bis(trifluoromethyl)benzyloxy)-2-phenylpropyl]methylamide hydrochloride]

Compound | IC50 [nM]
N-[3-(3,5-Bis(trifluoromethyl)benzyloxy)-2-(4-fluorophenyl)propyl]-N-methylpiperidine-4-carboxamide hydrochloride [Compound 97] | 20.3
